The source of these data is patent publication US5102888A, “Quinoline type mevalonolactones useful for treating hyperlipidemia and related diseases” (Nissan Chemical Industries Ltd., priority 1987, dated 1992).

Counter-ions that a name gives are not always drawn.

This experiment has as its system cholesterol biosynthesis wherein HMG-CoA reductase acts as a rate limiting enzyme (rat liver microsome and sup fraction). Nature of the experiment: Test A: Inhibition of Cholesterol Biosynthesis from Acetate In Vitro. It counts as biochemical, male Wistar rat. Conditions: for Relative activities by Test A: relative to activity of CS-514 evaluated to be 1; for IC50: [2-14C]sodium acetate incorporation, rat liver microsome + sup fraction, 2 hours, 37° C., read-out: I50 (Inhibitory activities by Test A). The procedure:
Enzyme solution was prepared from liver of male Wistar rat billialy cannulated and discharged bile for over 24 hours. Liver was cut out at mid-dark and microsome and supernatant fraction which was precipitable with 40-80% of saturation of ammonium sulfate (sup fraction) were prepared from liver homogenate according to the modified method of Knauss et. al.; Kuroda, M., et. al., Biochim. Biophys. Acta, 489, 119 (1977). For assay of cholesterol biosynthesis, microsome (0.1 mg protein) and sup fraction (1.0 mg protein) were incubated for 2 hours at 37° C. in 200 μl of the reaction mixture containing ATP; 1 mM, Glutathione; 6 mM, Glucose-1-phosphate; 10 mM, NAD; 0.25 mM, NADP; 0.25 mM, CoA; 0.04 mM and 0.2 mM [2-^14 C]sodium acetate (0.2 μCi) with 4 μl of test compound solution dissolved in water or dimethyl sulfoxide. To stop reaction and saponify, 1 ml of 15% EtOH--KOH was added to the reactions and heated at 75° C. for 1 hour. […] Inhibitory activity of compounds was indicated with IC50.
Background: Microsomes from liver hold many membrane-bound enzymes, among them those of drug oxidation.

With `CC(C)c1nc2c(Cl)cc(Cl)cc2c(-c2ccc(F)cc2)c1/C=C/C(O)CC(O)CC(=O)O` (stereo not shown) [Compound I-522], the “Relative activities by Test A” value amounted to 0.76.
As for `CCC(C)C(=O)OC1CC(O)C=C2C=CC(C)C(CCC(O)CC(O)CC(=O)O)C21` (stereo not shown) [CS-514, reference compound], the IC50 was 9 nM.
For the molecule `CCOC(=O)CC(O)CC(O)/C=C/c1c(CC)nc2ccccc2c1-c1ccc(F)cc1` (stereo not shown) [Compound I-117], the “Relative activities by Test A” value is 0.37.
In the case of `CC(C)c1nc2ccccc2c(-c2ccc(F)cc2)c1/C=C/C(O)CC(O)CC(=O)O` (stereo not shown) [Compound I-51, Sodium salt of (E)-3,5-dihydroxy-7-[4'-(4"-fluorophenyl)-2'-(1"-methylethyl)-quinolin-3'-yl]-hept-6-enoic acid], the IC50 stood at 10 nM.
